The values that follow are results of earlier work, collected in US20230120480A1, “METHODS FOR REMOVING CONTAMINANTS FROM PLANT-DERIVED PHARMACEUTICALS” (priority 2021, published 2023).

The first data set deals with humans.
`CCCCOCCOCCOCc1cc2c(cc1CCC)OCO2` [Piperonyl butoxide]: the toxicity to humans result is listed as “non-toxic”.

System in a further data set: not given
Take `CCCc1cc(O)c(C/C=C(\C)CCC=C(C)C)c(O)c1` [Cannabigerovarin]: the “Water Soluble?” value is given as “No”.

Regarding `CCCc1cc(O)c(C/C=C(\C)CCC=C(C)C)c(O)c1C(=O)O` [Cannabigerovarinic acid], the “Water Soluble?” value was “Yes”.

As for `CCCc1cc(O)c2c(c1)OC1(C)CCC(C(C)(C)O)C2C1` (stereo not shown) [Cannabiglendol], the “Water Soluble?” value was “No”.

Turning to `C=C(C)c1ccc(C)cc1-c1c(O)cc(CCCCC)cc1O` [Cannabinodiol], the “Water Soluble?” value was “No”.

On to `C=C(C)c1ccc(C)cc1-c1c(O)cc(CCC)cc1O` [Cannabinodivarin], for which the “Water Soluble?” value was “No”.

For the compound `CCCCCc1cc(OC)c2c(c1)OC(C)(C)c1ccc(C)cc1-2` [Cannabinol methylether], the “Water Soluble?” value is “No”.

As to `CCc1cc(O)c2c(c1)OC(C)(C)c1ccc(C)cc1-2` [Cannabinol-C2], the “Water Soluble?” value is recorded as “No”.

As to `CCCCc1cc(O)c2c(c1)OC(C)(C)c1ccc(C)cc1-2` [Cannabinol-C4], the “Water Soluble?” value is “No”.

Turning to `CCCCCc1cc2c(c(O)c1C(=O)O)-c1cc(C)ccc1C(C)(C)O2` [Cannabinolic acid], the “Water Soluble?” value is listed as “Yes”.

Regarding `Cc1cc(O)c2c(c1)OC(C)(C)c1ccc(C)cc1-2` [Cannabiorcool], the “Water Soluble?” value is reported as “No”.

Consider `CCCCCc1cc(O)c2c(c1)OC(C)(C)[C@@H]1CC[C@](C)(O)[C@@H](O)[C@@H]21` [Cannabiripsol], for which the “Water Soluble?” value was “No”.

For `CCCCCc1cc(O)c2c(c1)OC(C)(C)C1=C2C(O)C(C)(O)CC1` (stereo not shown) [Cannabitriol], the “Water Soluble?” value is recorded as “No”.

On to `CCCc1cc(O)c2c(c1)OC(C)(C)C1=C2C(O)C(C)(O)CC1` (stereo not shown) [Cannabitriolvarin], for which the “Water Soluble?” value is reported as “No”.

Regarding `CCCc1cc(O)c2c(c1)OC(C)(C)c1ccc(C)cc1-2` [Cannabivarin], the “Water Soluble?” value is reported as “No”.

`CCCCCc1cc(O)c2c(c1)OC(C)(C)C1CC=C(C)CC21` (stereo not shown) [Delta-8-tetrahydrocannabinol]: the “Water Soluble?” value is “No”.

As for `CCCCCc1cc2c(c(O)c1C(=O)O)[C@@H]1CC(C)=CC[C@H]1C(C)(C)O2` [Delta-8-tetrahydrocannabinolic acid], the “Water Soluble?” value is “Yes”.

In the case of `CCCCCc1cc(O)c2c(c1)OC(C)(C)[C@@H]1CCC(C)=C[C@@H]21` [Delta-9-tetrahydrocannabinol, reference compound], the “Water Soluble?” value is “No”.

On to `CCCCc1cc(O)c2c(c1)OC(C)(C)C1CCC(C)=CC21` (stereo not shown) [Delta-9-tetrahydrocannabinol-C4], for which the “Water Soluble?” value is recorded as “No”.

As for `CCCCCc1cc2c(c(O)c1C(=O)O)[C@@H]1C=C(C)CC[C@H]1C(C)(C)O2` [Delta-9-tetrahydrocannabinolic acid A], the “Water Soluble?” value is listed as “Yes”.

On to `CCCCCc1cc(O)c2c(c1C(=O)O)OC(C)(C)[C@@H]1CCC(C)=C[C@@H]21` [Delta-9-tetrahydrocannabinolic acid B], for which the “Water Soluble?” value is reported as “Yes”.

On to `CCCCc1cc2c(c(O)c1C(=O)O)[C@@H]1C=C(C)CC[C@H]1C(C)(C)O2` [Delta-9-tetrahydrocannabinolic acid-C4], for which the “Water Soluble?” value was “Yes”.

As for `CC1=CC2c3c(O)cc(C)cc3OC(C)(C)C2CC1` (stereo not shown) [Delta-9-tetrahydrocannabiorcol], the “Water Soluble?” value was “No”.

Take `CC1=CC2c3c(cc(C)c(C(=O)O)c3O)OC(C)(C)C2CC1` (stereo not shown) [Delta-9-tetrahydrocannabiorcolic acid]: the “Water Soluble?” value is reported as “Yes”.

`CCCc1cc2c(c(O)c1C(=O)O)[C@@H]1C=C(C)CC[C@H]1C(C)(C)O2` [Delta-9-tetrahydrocannabivarinic acid]: the “Water Soluble?” value is reported as “Yes”.

In the case of Cannabifuran, the “Water Soluble?” value is given as “No”.

Cannbicitran: the “Water Soluble?” value was “No”.

For the compound Dehydrocannabifuran, the “Water Soluble?” value is reported as “No”.
